# Activity calls are given as the source filed them. The rule behind the calls is not given here.
# Target: fMet-Leu-Phe receptor (Homo sapiens) (UniProt P21462)
# Experiment: FPR antagonists blocking calcium signaling, confirmation, cell-based, calcium response (AID 699)
# Details: FPR1 cells, ligand-induced calcium response inhibition; stronger effect = higher value; concentration not given here
# Chain of fMet-Leu-Phe receptor (Homo sapiens) (P21462 whole entry, looked up): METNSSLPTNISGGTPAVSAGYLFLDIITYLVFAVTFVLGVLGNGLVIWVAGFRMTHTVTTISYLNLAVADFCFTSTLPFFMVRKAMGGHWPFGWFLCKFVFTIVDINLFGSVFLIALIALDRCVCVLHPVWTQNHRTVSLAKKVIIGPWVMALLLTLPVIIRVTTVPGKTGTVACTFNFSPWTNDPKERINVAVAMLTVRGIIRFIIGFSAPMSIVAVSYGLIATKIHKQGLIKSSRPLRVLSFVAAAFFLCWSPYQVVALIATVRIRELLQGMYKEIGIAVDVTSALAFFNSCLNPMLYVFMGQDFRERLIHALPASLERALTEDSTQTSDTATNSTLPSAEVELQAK
row,Compound,inhibition
1,COc1ccc(Cl)cc1-n1c(=S)sc2c(=O)[nH]c(SCC(=O)NCC3CCCO3)nc21 (centres undefined),100%
2,Cc1[nH]n2c(=O)c3c(nc2c1-c1ccc(Cl)cc1)CCC3,-0% (inactive)
3,COCCCN1C(=O)C(O)=C(C(=O)c2ccco2)C1c1ccccc1 (centres undefined),56.7% (inactive)
4,COc1ccccc1-c1c(C)oc2cc(OC(=O)c3ccco3)ccc2c1=O,83.2% (inactive)
5,COCCCN1C(=O)C(O)=C(C(=O)c2ccco2)C1c1cccc(Br)c1 (centres undefined),90.9%
6,CCOc1ccc(C2C(C(=O)c3ccco3)=C(O)C(=O)N2CCCn2ccnc2)cc1 (centres undefined),23.6% (inactive)
7,CC(C)CN(CC(C)C)C(=O)CS(=O)(=O)Cc1ccccc1,-0% (inactive)
8,CC1(C)S[C@@H]2[C@H](NC(=O)Cc3ccccc3)C(=O)N2[C@H]1C(=O)O,79.1% (inactive)
9,COCCCN1C(=O)C(O)=C(C(=O)c2ccco2)C1c1ccc(Br)cc1 (centres undefined),39.8% (inactive)
10,O=C(C1=C(O)C(=O)N(Cc2ccccc2)C1c1ccco1)c1ccco1 (centres undefined),56.9% (inactive)
11,COc1cc(C2C(C(=O)c3ccco3)=C(O)C(=O)N2CCc2ccccc2)ccc1O (centres undefined),98.8%
12,C=CCOc1ccc(C2C(C(=O)c3ccco3)=C(O)C(=O)N2Cc2cccnc2)cc1 (centres undefined),-0% (inactive)
13,O=C(NC1CCCC1)c1sc(=S)n2c1[nH]c(=O)c1ccccc12,97%
14,CCCCC1C(=O)N(c2ccccc2)N(c2ccccc2)C1=O,96.9%
15,Cc1ccsc1C1C2=C(CC(C)(C)CC2=O)Nc2ncnn21 (centres undefined),-0% (inactive)
16,CCCOc1ccc(C2C(C(=O)c3ccc(C)o3)=C(O)C(=O)N2CCCn2ccnc2)cc1 (centres undefined),21.4% (inactive)
17,O=C1C(C23CC4CC(CC(C4)C2)C3)C(=O)N(c2ccccc2)N1c1ccccc1,-0% (inactive)
18,CCCOc1ccc(C2C(C(=O)c3ccco3)=C(O)C(=O)N2CCCn2ccnc2)cc1 (centres undefined),98.4%
19,O=C1C(CCS(=O)c2ccccc2)C(=O)N(c2ccccc2)N1c1ccccc1 (centres undefined),-0% (inactive)
20,CCC(=O)Nc1c(C#N)c2nc3ccccc3nc2n1-c1ccccc1C,91.7%
21,Cc1[nH]n2c(=O)c(C#N)c(-c3ccccc3)nc2c1-c1ccccc1,104%
22,O=C(C1=C(O)C(=O)N(Cc2ccccc2)C1c1ccncc1)c1ccco1 (centres undefined),-0% (inactive)
23,COc1ccccc1Oc1c(C)oc2cc(OC(=O)c3ccco3)ccc2c1=O,93.7%

# Now from value to compound:
row,inhibition,Compound
1,99%,COc1ccccc1C1/C(=C(/O)c2ccccc2)C(=O)C(=O)N1CC(C)C (centres undefined)
2,90.5%,CCOc1cccc(/C(O)=C2/C(=O)C(=O)N(CCOC)C2c2ccc(C)o2)c1 (centres undefined)
3,102%,C=CCOc1cccc(C2C(C(=O)c3ccco3)=C(O)C(=O)N2CCN2CCOCC2)c1 (centres undefined)
4,66.4% (inactive),Cc1c(C(=O)NC2CCCc3ccccc32)oc2ccc(S(=O)(=O)N3CCOCC3)cc12 (centres undefined)
5,93.9%,COC(=O)c1[nH]c(C)c(/C(O)=C2\C(=O)C(=O)N(CCN3CCOCC3)C2c2cccs2)c1C (centres undefined)
6,101%,COCCCN1C(=O)C(=O)/C(=C(/O)c2ccccc2)C1c1ccc2c(c1)OCO2 (centres undefined)
7,93.8%,COc1ccc(OC)c(C2C(C(=O)c3cccs3)=C(O)C(=O)N2c2cc(C)on2)c1 (centres undefined)
8,26.5% (inactive),COC(=O)c1[nH]c(C)c(/C(O)=C2\C(=O)C(=O)N(CCCN3CCOCC3)C2c2ccccn2)c1C (centres undefined)
9,95.1%,COCCN1C(=O)C(O)=C(C(=O)c2cccs2)C1c1ccccc1 (centres undefined)
10,38.1% (inactive),COc1ccc(OC)c(C2/C(=C(/O)c3ccccc3)C(=O)C(=O)N2Cc2ccco2)c1 (centres undefined)
11,15.5% (inactive),Cc1ccc(C2/C(=C(/O)c3ccc(Cl)cc3)C(=O)C(=O)N2CC2CCCO2)o1 (centres undefined)

# From PubChem BioAssay AID699 (NMMLSC, 2007)
